Measured values published in US20130224223A1, “Compositions and Methods for Treating Neurological Disorders” (GEORGIA REGENTS UNIVERSITY, priority 2007, published 2013).

Target: T1, ErbB4 (Rattus norvegicus, UniProt Q62956)
T1 construct: cerebral cortex was dissected out of Sprague-Dawley rat embryos (E18) and dissociated; endogenous in cells; host or cells: primary rat (Sprague-Dawley) embryonic cortical neurons, DIV14, GAD65-positive
Experiment: phospho-ErbB4 immunostaining in GAD65-positive cortical neurons
Type: cell-based
Conditions: pretreatment 10 min before 5 nM NRG1; AG1478/AG879 5 mM [sic]
Method: FIG. 4A is a bar graph showing quantitative analysis of phospho-ErbB4 (p-ErbB4) in GAD65-positive cortical neurons treated with ecto-ErbB4 for 10 min prior to the addition of NRG1 (5 nM, final concentration) for another 10 min. n=7, *p<0.05. FIG. 4B is a line graph of eIPSC amplitude (nA) versus time (min) for cortical slices treated with sequential addition of NRG1 (5 nM) and ecto-ErbB4 (1 μg/ml and 2 μg/ml) (all final concentrations). On the top are averaged traces before (a) and after (b) NRG1, and after different dosages of ecto-ErbB4 ([c] and [d], 1 and 2 μg/ml, respectively). […]
FIG. 5A is a bar graph of phospho-ErbB4 (p-ErbB4) in cortical neurons treated with 5 mM AG1478, an inhibitor of ErbB4, or AG879, an inhibitor of ErbB2, for 10 min prior to the addition of NRG1 (5 nM, final concentration). Neurons were fixed and stained with phospho-ErbB4 and GAD65 antibodies, and visualized with Alexa 594 and FITC-coupled secondary antibodies respectively, and quantified. […]

T1 sequence (Q62956 26-1308): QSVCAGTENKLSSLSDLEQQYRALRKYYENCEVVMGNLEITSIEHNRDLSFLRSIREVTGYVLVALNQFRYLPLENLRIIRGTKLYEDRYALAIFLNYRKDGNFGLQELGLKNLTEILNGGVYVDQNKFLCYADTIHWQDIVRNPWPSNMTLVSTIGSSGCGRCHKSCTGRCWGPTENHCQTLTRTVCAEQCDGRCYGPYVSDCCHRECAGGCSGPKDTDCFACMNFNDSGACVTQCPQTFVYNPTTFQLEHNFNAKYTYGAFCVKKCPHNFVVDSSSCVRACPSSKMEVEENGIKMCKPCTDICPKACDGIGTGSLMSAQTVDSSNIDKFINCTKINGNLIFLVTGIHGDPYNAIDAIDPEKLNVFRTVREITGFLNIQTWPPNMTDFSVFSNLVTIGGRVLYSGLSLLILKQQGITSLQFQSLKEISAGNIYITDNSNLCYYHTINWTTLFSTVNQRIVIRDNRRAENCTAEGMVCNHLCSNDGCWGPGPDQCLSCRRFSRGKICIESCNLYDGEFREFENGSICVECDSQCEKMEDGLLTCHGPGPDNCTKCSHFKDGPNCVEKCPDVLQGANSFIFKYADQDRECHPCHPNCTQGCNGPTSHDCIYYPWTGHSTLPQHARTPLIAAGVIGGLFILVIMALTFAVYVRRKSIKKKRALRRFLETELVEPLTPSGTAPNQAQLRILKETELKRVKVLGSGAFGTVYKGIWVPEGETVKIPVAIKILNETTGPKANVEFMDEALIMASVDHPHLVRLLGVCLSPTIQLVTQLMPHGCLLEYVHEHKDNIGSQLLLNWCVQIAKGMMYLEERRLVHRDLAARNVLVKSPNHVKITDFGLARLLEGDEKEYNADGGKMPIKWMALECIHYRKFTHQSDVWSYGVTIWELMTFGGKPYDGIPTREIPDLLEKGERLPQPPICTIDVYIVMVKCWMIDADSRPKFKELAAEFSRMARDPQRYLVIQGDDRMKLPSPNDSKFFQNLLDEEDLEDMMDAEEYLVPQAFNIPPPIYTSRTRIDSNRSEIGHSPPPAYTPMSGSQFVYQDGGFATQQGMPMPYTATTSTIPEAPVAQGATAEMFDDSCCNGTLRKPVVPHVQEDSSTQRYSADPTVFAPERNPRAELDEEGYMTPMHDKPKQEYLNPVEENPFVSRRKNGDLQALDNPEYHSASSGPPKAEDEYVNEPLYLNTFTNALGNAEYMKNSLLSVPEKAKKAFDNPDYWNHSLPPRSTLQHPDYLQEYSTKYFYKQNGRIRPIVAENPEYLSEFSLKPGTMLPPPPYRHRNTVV

NRG1 activation (tyrosine phosphorylation) of ErbB4: blocked
SMILES: COc1cc2ncnc(Nc3cccc(Cl)c3)c2cc1OC [AG1478]
